The source of these data is patent US20210100777A1, “HEAT SHOCK PROTEIN (HSP) INHIBITION AND MONITORING EFFECTIVENESS THEREOF” (H. LEE MOFFITT CANCER CENTER AND RESEARCH INSTITUTE, INC., priority 2013, published 2021).

Structures are written as SMILES.

For assay [1], the system named is RPMI 7951. As to the kind of experiment: Growth inhibition, MTT assay. The note with it: Homo sapiens, RPMI 7951 (overexpression of COT), 72 hours. It is filed as cell-based. As to the method:
(§1) Growth inhibition. Cells were plated at a density of 2.5×10^4 cells per ml and left to grow overnight before being treated with increasing concentrations of vemurafenib or XL888. After 72 hours, the levels of growth inhibition were examined using the MTT assay (Smalley et al., Br. J. Cancer 96:445-9 (2007)). […] Vemurafenib and XL888 were dissolved in 100% DMSO and stored at −20° C. as a 10 mM solution.
(§2) Statistical analysis of GI50 values. Triplicate experiments were performed for each cell line under each drug treatment. To estimate the IC50 values for each cell line for each treatment, a 4-parameter Hill equation was used to model the nonlinear sigmoid relationship between the drug concentration and % cell survival. Briefly,
(§3) where x is the drug concentration, y is the % survival, ε is the error term. The four parameters in the model to estimate are: 1) the control-level effect (E); 2) the background-level effect (B); 3) the median effect concentration (GI50); and 4) the strength of the inhibition (m). The constraint of non-negative minimum background effect (B) is imposed so the model is biologically meaningful. Levenberg-Marquardt algorithm for nonlinear least squares was used to fit the model and estimate all four parameters for each cell line under each treatment. Estimated concentration at 50% cell survival, i.e., IC50, is estimated using the plugged-in parameters after model fitting. Note that when the control and background effects are 100% and 0%, respectively, the estimated GI50 and IC50 values would be identical. To compare the estimated IC50 values between the resistance and naïve paired of cell lines, after log transformation, a paired t-test was performed for each drug.

The subject of assay [2] is WM39. As to the kind of experiment: Growth inhibition, MTT assay. It is filed as cell-based. The note with it: WM39 (amplification of cyclin D1), 72 hours. Here is the method: as §1, §2, §3
For orientation: Tetrazolium dyes change colour on reduction, which living cells bring about.

Assay [3] deals with matched pairs of vemurafenib naïve and resistant melanoma cell lines and melanoma cell lines with intrinsic resistance. As to the kind of experiment: Growth inhibition, MTT assay. It is filed as cell-based. As to conditions: M229/M229R, M249/M249R, WM164/WM164R, 1205Lu/1205LuR; paired t-test. As to the method:
as §1, §2, §3

Assay [4] deals with BIM, Mcl-1 and BMF mRNA in vemurafenib-resistant melanoma cell lines. As to the kind of experiment: Quantitative real-time PCR. As to conditions: M229R; 3 μM, 48 hours. A general note: In qPCR the cycle at which signal appears reflects the starting amount.

With `CCCS(=O)(=O)Nc1ccc(F)c(C(=O)c2c[nH]c3ncc(-c4ccc(Cl)cc4)cc23)c1F` [vemurafenib, N-(3-{[5-(4-chlorophenyl)-1H-pyrrolo[2,3-b]pyridin-3-yl]carbonyl}-2,4-difluorophenyl)propane-1-sulfonamide], the IC50 in assay [1] and in assay [2] was more than 3 µM throughout. Moreover, the “difference in growth inhibition / IC50 between naïve and resistant pairs of cell lines” value in assay [3] is on record as “statistically significant difference in the extent of growth inhibition”.
On to `Cn1cnc2c(F)c(Nc3ccc(Br)cc3Cl)c(C(=O)NOCCO)cc21` [MEK inhibitor], for which the BMF expression entry in assay [4] is “robust induction of BMF expression”.
